System: 292921-168-R-J2-PDC KRAS tumor spheroid viability
Assay: Anticancer human tumor 292921-168-R-J2-PDC patient-derived pancreatic carcinoma cell line growth inhibition [KRAS2]
Conditions: spheroids with HUVEC and MSC; for IC50: curve of first compound; for viability, T/C: stronger effect = lower value; active = viability on the fitted dose curve at most 10% of control; inactive = the rest
In short: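 Combination screen of spheroid viability in tumor-cell co-cultures with endothelial (HUVEC) and mesenchymal stem cell stroma. Each agent was tested in half-log dilutions, topping at clinical Cmax or at 10 microM without a known Cmax.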

[1] = second compound 0.1 µM, first compound 0.000316 µM
[2] = second compound 0.1 µM, first compound 0.001 µM
[3] = second compound 0.1 µM, first compound 0.00316 µM
[4] = second compound 0.1 µM, first compound 0.01 µM
[5] = second compound 0.1 µM, first compound 0.0316 µM
[6] = second compound 0.316 µM, first compound 0.000316 µM
[7] = second compound 0.316 µM, first compound 0.001 µM
[8] = second compound 0.316 µM, first compound 0.00316 µM
[9] = second compound 0.316 µM, first compound 0.01 µM
[10] = second compound 0.316 µM, first compound 0.0316 µM
[11] = second compound 1 µM, first compound 0.000316 µM
[12] = second compound 1 µM, first compound 0.001 µM
[13] = second compound 1 µM, first compound 0.00316 µM
[14] = second compound 1 µM, first compound 0.01 µM
[15] = second compound 1 µM, first compound 0.0316 µM
[16] = second compound 3.16 µM, first compound 0.000316 µM
[17] = second compound 3.16 µM, first compound 0.001 µM
[18] = second compound 3.16 µM, first compound 0.00316 µM
[19] = second compound 3.16 µM, first compound 0.01 µM
[20] = second compound 3.16 µM, first compound 0.0316 µM
[21] = second compound 10 µM, first compound 0.000316 µM
[22] = second compound 10 µM, first compound 0.001 µM
[23] = second compound 10 µM, first compound 0.00316 µM
[24] = second compound 10 µM, first compound 0.01 µM
[25] = second compound 10 µM, first compound 0.0316 µM
[26] = second compound 0.1 µM, first compound 0.1 µM
[27] = second compound 0.316 µM, first compound 0.1 µM
[28] = second compound 1 µM, first compound 0.1 µM
[29] = second compound 3.16 µM, first compound 0.1 µM
[30] = second compound 10 µM, first compound 0.1 µM
[31] = second compound 0.1 µM, first compound 0.316 µM
[32] = second compound 0.1 µM, first compound 1 µM
[33] = second compound 0.1 µM, first compound 3.16 µM
[34] = second compound 0.1 µM, first compound 10 µM
[35] = second compound 0.316 µM, first compound 0.316 µM
[36] = second compound 0.316 µM, first compound 1 µM
[37] = second compound 0.316 µM, first compound 3.16 µM
[38] = second compound 0.316 µM, first compound 10 µM
[39] = second compound 1 µM, first compound 0.316 µM
[40] = second compound 1 µM, first compound 1 µM
[41] = second compound 1 µM, first compound 3.16 µM
[42] = second compound 1 µM, first compound 10 µM
[43] = second compound 3.16 µM, first compound 0.316 µM
[44] = second compound 3.16 µM, first compound 1 µM
[45] = second compound 3.16 µM, first compound 3.16 µM
[46] = second compound 3.16 µM, first compound 10 µM
[47] = second compound 10 µM, first compound 0.316 µM
[48] = second compound 10 µM, first compound 1 µM
[49] = second compound 10 µM, first compound 3.16 µM
[50] = second compound 10 µM, first compound 10 µM
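Also: drug exposure lasted seven days after spheroids formed for three days.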
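For viability, T/C in this document: percent of DMSO vehicle control viability which is 100%.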

CC(=O)Nc1cccc(-n2c(=O)n(C3CC3)c(=O)c3c(Nc4ccc(I)cc4F)n(C)c(=O)c(C)c32)c1 + COc1cc2nc(C)nc(NC(C)c3cc(N)cc(C(F)(F)F)c3)c2cc1OC1CCOC1
inactive: viability, T/C (second compound 0.1 µM, first compound 0.0001 µM) 72.3% | viability, T/C [1] 40.4% | viability, T/C [2] 25.4% | viability, T/C [3] 16.1% | viability, T/C [4] 11.3% | viability, T/C (second compound 0.316 µM, first compound 0.0001 µM) 57.4% | viability, T/C [6] 40.9% | viability, T/C [7] 22% | viability, T/C [8] 15.7% | viability, T/C [9] 12% | viability, T/C (second compound 1 µM, first compound 0.0001 µM) 53.6% | viability, T/C [11] 31.5% | viability, T/C [12] 20.9% | viability, T/C [13] 13.8% | viability, T/C [14] 11.5% | viability, T/C (second compound 3.16 µM, first compound 0.0001 µM) 51.5% | viability, T/C [16] 29.2% | viability, T/C [17] 19.1% | viability, T/C [18] 12.4% | viability, T/C (second compound 10 µM, first compound 0.0001 µM) 18.4% | viability, T/C [21] 14.6% | viability, T/C [22] 15% | viability, T/C [23] 11.9%
0.105 nM: IC50 (second compound 3.16 µM)
0.23 nM: IC50 (second compound 0.1 µM)
active: viability, T/C [5] 8.07% | viability, T/C [10] 8.27% | viability, T/C [15] 8.01% | viability, T/C [19] 10.3% | viability, T/C [20] 8.26% | viability, T/C [24] 8.42% | viability, T/C [25] 8.34%
< 0.1 nM: IC50 (second compound 10 µM)
0.165 nM: IC50 (second compound 0.316 µM)
0.119 nM: IC50 (second compound 1 µM)

CC(C)n1nc(-c2ccc3oc(N)nc3c2)c2c(N)ncnc21 + COc1cc2nc(C)nc(NC(C)c3cc(N)cc(C(F)(F)F)c3)c2cc1OC1CCOC1
< 0.316 nM: IC50 (second compound 10 µM)
3.29 nM: IC50 (second compound 0.1 µM)
inactive: viability, T/C [1] 35% | viability, T/C [2] 74.8% | viability, T/C [3] 46.2% | viability, T/C [4] 38.8% | viability, T/C [5] 28.1% | viability, T/C [26] 26.2% | viability, T/C [6] 88% | viability, T/C [7] 73.2% | viability, T/C [8] 53.6% | viability, T/C [9] 35.7% | viability, T/C [10] 29.4% | viability, T/C [27] 24.1% | viability, T/C [11] 81.1% | viability, T/C [12] 68.9% | viability, T/C [13] 47% | viability, T/C [14] 30.5% | viability, T/C [15] 23.7% | viability, T/C [28] 21.2% | viability, T/C [16] 64.9% | viability, T/C [17] 54.2% | viability, T/C [18] 37.8% | viability, T/C [19] 26.3% | viability, T/C [20] 23.8% | viability, T/C [29] 20.6% | viability, T/C [21] 32.7% | viability, T/C [22] 26.4% | viability, T/C [23] 24.3% | viability, T/C [24] 17.7% | viability, T/C [25] 16.7% | viability, T/C [30] 15.5%
1.34 nM: IC50 (second compound 3.16 µM)
2.72 nM: IC50 (second compound 1 µM)
3.94 nM: IC50 (second compound 0.316 µM)

CC1(C)CCC(CN2CCN(c3ccc(C(=O)NS(=O)(=O)c4ccc(NCC5CCOCC5)c([N+](=O)[O-])c4)c(Oc4cnc5[nH]ccc5c4)c3)CC2)=C(c2ccc(Cl)cc2)C1 + COc1cc2nc(C)nc(NC(C)c3cc(N)cc(C(F)(F)F)c3)c2cc1OC1CCOC1
2180 nM: IC50 (second compound 0.316 µM)
active: viability, T/C [38] 8.02% | viability, T/C [42] 8.25% | viability, T/C [46] 8.28% | viability, T/C [50] 6.32%
1820 nM: IC50 (second compound 1 µM)
2090 nM: IC50 (second compound 0.1 µM)
< 31.6 nM: IC50 (second compound 10 µM)
1380 nM: IC50 (second compound 3.16 µM)
inactive: viability, T/C [5] 105% | viability, T/C [26] 94.4% | viability, T/C [31] 91.9% | viability, T/C [32] 93.4% | viability, T/C [33] 25.6% | viability, T/C [34] 14.3% | viability, T/C [10] 88.9% | viability, T/C [27] 81% | viability, T/C [35] 88.9% | viability, T/C [36] 91.6% | viability, T/C [37] 32.1% | viability, T/C [15] 84.1% | viability, T/C [28] 80.5% | viability, T/C [39] 83% | viability, T/C [40] 85.8% | viability, T/C [41] 19.5% | viability, T/C [20] 70.8% | viability, T/C [29] 70.6% | viability, T/C [43] 73.2% | viability, T/C [44] 63.4% | viability, T/C [45] 15.6% | viability, T/C [25] 36.8% | viability, T/C [30] 31% | viability, T/C [47] 33.6% | viability, T/C [48] 27.3% | viability, T/C [49] 7.17%

COc1cc(Nc2ncc3c(n2)-c2ccc(Cl)cc2C(c2c(F)cccc2OC)=NC3)ccc1C(=O)O + COc1cc2nc(C)nc(NC(C)c3cc(N)cc(C(F)(F)F)c3)c2cc1OC1CCOC1
< 31.6 nM: IC50 (second compound 0.1 µM) | IC50 (second compound 0.316 µM) | IC50 (second compound 1 µM) | IC50 (second compound 3.16 µM) | IC50 (second compound 10 µM)
inactive: viability, T/C [5] 28.8% | viability, T/C [26] 23.7% | viability, T/C [31] 27.9% | viability, T/C [32] 25.8% | viability, T/C [33] 19.4% | viability, T/C [34] 16.9% | viability, T/C [10] 26.3% | viability, T/C [27] 21.9% | viability, T/C [35] 27.4% | viability, T/C [36] 22.1% | viability, T/C [37] 22.3% | viability, T/C [38] 14.9% | viability, T/C [15] 25% | viability, T/C [28] 24.5% | viability, T/C [39] 25.6% | viability, T/C [40] 23.4% | viability, T/C [41] 18.5% | viability, T/C [42] 13.6% | viability, T/C [20] 23.8% | viability, T/C [29] 20.5% | viability, T/C [43] 20.8% | viability, T/C [44] 22.1% | viability, T/C [45] 18.5% | viability, T/C [46] 14% | viability, T/C [25] 15.1% | viability, T/C [30] 11.2% | viability, T/C [47] 11.6% | viability, T/C [48] 11.9% | viability, T/C [49] 13.6% | viability, T/C [50] 12.3%

COc1cc2nccc(Oc3ccc(NC(=O)C4(C(=O)Nc5ccc(F)cc5)CC4)cc3)c2cc1OC + COc1cc2nc(C)nc(NC(C)c3cc(N)cc(C(F)(F)F)c3)c2cc1OC1CCOC1
inactive: viability, T/C [5] 102% | viability, T/C [26] 110% | viability, T/C [31] 101% | viability, T/C [32] 77.8% | viability, T/C [33] 40% | viability, T/C [34] 21.1% | viability, T/C [10] 99.4% | viability, T/C [27] 99.4% | viability, T/C [35] 92% | viability, T/C [36] 75% | viability, T/C [37] 42.5% | viability, T/C [38] 23.7% | viability, T/C [15] 102% | viability, T/C [28] 86.9% | viability, T/C [39] 88.6% | viability, T/C [40] 60.4% | viability, T/C [41] 33.2% | viability, T/C [42] 17.6% | viability, T/C [20] 73.6% | viability, T/C [29] 72.9% | viability, T/C [43] 64.6% | viability, T/C [44] 51.8% | viability, T/C [45] 22.2% | viability, T/C [46] 11.8% | viability, T/C [25] 45.1% | viability, T/C [30] 31.1% | viability, T/C [47] 36.6% | viability, T/C [48] 31.9% | viability, T/C [49] 15.8%
2310 nM: IC50 (second compound 0.1 µM)
2440 nM: IC50 (second compound 0.316 µM)
996 nM: IC50 (second compound 3.16 µM)
active: viability, T/C [50] 0.83%
1590 nM: IC50 (second compound 1 µM)
< 31.6 nM: IC50 (second compound 10 µM)
